Assay results from US5409933A, “Quinoline derivatives and processes for preparing the same” (priority 1993, dated 1995).
Structures can show the parent of a compound that is named as a salt. Where two headings read alike, the source gives them in different places.

Experiments:
Assay in all cases: In Vitro Anti-Bacterial Activity Test (MIC, agar dilution)
Format in all cases: cell-based
[1] = system: Enterobacter cloacae 1321E
Description: (§1) The above in vitro antibacterial activity test was carried out in accordance with the agar culture medium dilution method (Hoechst 345) by using Muller-Hinton agar medium to determine the minimum inhibitory concentration (MIC).
(§2) The strains having 10^7 C.F.U./ml were inoculated on the culture medium, and the growth of the strains was observed after incubating them at 37° C. for 18 hours, in which ciprofloxacin was used as a control antibacterial agent. In this test, twenty typical strains were used.

Enterobacter cloacae P99 = conditions: Enterobacter cloacae, P99, 18 h
Description: as §1, §2

Escherichia coli 078 = system: Escherichia coli 078
Description: as §1, §2

Escherichia coli 1507E = conditions: Muller-Hinton agar, 37° C.
Description: as §1, §2

Escherichia coli DC0 = conditions: Muller-Hinton agar, 37° C., 18 hours, read-out: MIC
Description: as §1, §2

Escherichia coli DC2 = conditions: Escherichia coli, DC2, 18 h
Description: as §1, §2

Escherichia coli TEM = conditions: Escherichia coli, 18 h, Muller-Hinton agar, 37° C.
Description: as §1, §2

[2] = system: Klebsiella aerogenes 1522E; conditions: Klebsiella aerogenes, 1522E, 18 h, Klebsiella aerogenes 1522E; Muller-Hinton agar, 37° C., 18 hours; read-out: MIC
Description: as §1, §2

Klebsiella oxytoca 1082E = system: Klebsiella oxytoca 1082E
Description: as §1, §2

[3] = system: Pseudomonas aeruginosa 1592E; conditions: Muller-Hinton agar, 37° C., 18 hours, read-out: MIC
Description: as §1, §2

[4] = system: Pseudomonas aeruginosa 1771M; conditions: Pseudomonas aeruginosa, 1771M, 18 h, Muller-Hinton agar, 37° C.
Description: as §1, §2

[5] = system: Pseudomonas aeruginosa 1771
Description: as §1, §2

[6] = system: Pseudomonas aeruginosa 9027; conditions: Muller-Hinton agar, 37° C., 18 hours, read-out: MIC
Description: as §1, §2

Salmonella typhimurium = conditions: Salmonella enterica; Salmonella typhimurium; Muller-Hinton agar, 37° C., 18 hours; read-out: MIC
Description: as §1, §2

[7] = system: Staphylococcus aureus 285; conditions: Staphylococcus aureus, 285, 18 h, Staphylococcus aureus 285; Muller-Hinton agar, 37° C., 18 hours; read-out: MIC
Description: as §1, §2

[8] = system: Staphylococcus aureus 503; conditions: Staphylococcus aureus 503; Muller-Hinton agar, 37° C., 18 hours; read-out: MIC
Description: as §1, §2

[9] = system: Staphylococcus aureus SG511; conditions: Staphylococcus aureus SG511; Muller-Hinton agar, 37° C., 18 hours; read-out: MIC
Description: as §1, §2

[10] = system: Streptococcus faecium MD8b; conditions: Enterococcus faecium, Muller-Hinton agar, 37° C., 18 hours, read-out: MIC
Description: as §1, §2

[11] = system: Streptococcus pyogenes 308A; conditions: Muller-Hinton agar, 37° C., 18 hours, read-out: MIC
Description: as §1, §2

[12] = system: Streptococcus pyogenes 77A
Description: as §1, §2

[13] = Enterobacter cloacae 1321E, Muller-Hinton agar, 37° C., 18 hours, read-out: MIC
[14] = Escherichia coli 078, Muller-Hinton agar, 37° C., 18 hours, read-out: MIC
[15] = Klebsiella oxytoca 1082E, Muller-Hinton agar, 37° C., 18 hours, read-out: MIC
[16] = Pseudomonas aeruginosa 1771, Muller-Hinton agar, 37° C., 18 hours, read-out: MIC
[17] = Streptococcus pyogenes 77A, Muller-Hinton agar, 37° C., 18 hours, read-out: MIC
[18] = Klebsiella oxytoca, 1082E, 18 h

SMILES	MIC [1, 13]	MIC (Enterobacter cloacae P99)	MIC (Escherichia coli 078; [14])	MIC (Escherichia coli 1507E; Escherichia coli, 1507E, 18 h)	MIC (Escherichia coli DC0)	MIC (Escherichia coli DC2)	MIC (Escherichia coli TEM)	MIC [2]	MIC (Klebsiella oxytoca 1082E; [15])	MIC [3]	MIC [4]	MIC [5, 16]	MIC [6]	MIC (Salmonella typhimurium)	MIC [7]	MIC [8]	MIC [9]	MIC [10]	MIC [11]	MIC [12, 17]	also measured
CCOC(=O)C(C(=O)OCC)C(=O)c1cn(C2CC2)c2c(Cl)c(N3CC[C@@H](N)C3)c(F)cc2c1=O [Example 23, 1-cyclopropyl-6-fluoro-8-chloro-7-(3-3R-aminopyrrolidin-1-yl)-3-(2,2-diethoxycarbonylacetyl)-1,4-dihydro-4-oxoquinoline hydrochloride]	< 0.002 µg/mL	0.004 µg/mL	< 0.002 µg/mL	0.013 µg/mL	0.195 µg/mL	0.049 µg/mL	0.004 µg/mL	0.025 µg/mL	< 0.002 µg/mL	0.391 µg/mL	0.098 µg/mL	0.391 µg/mL	0.781 µg/mL	0.004 µg/mL	0.049 µg/mL	0.049 µg/mL	0.049 µg/mL	0.195 µg/mL	0.781 µg/mL	0.195 µg/mL	–
CCOC(=O)C(C(=O)OCC)C(=O)c1cn(C2CC2)c2c(Cl)c(N3CC[C@H](N)C3)c(F)cc2c1=O [Example 24, 1-cyclopropyl-6-fluoro-8-chloro-7-(3-3S-aminopyrrolidin-1-yl)-3-(2,2-diethoxycarbonylacetyl)-1,4-dihydro-4-oxoquinoline hydrochloride]	< 0.002 µg/mL	< 0.002 µg/mL	< 0.002 µg/mL	–	0.098 µg/mL	0.025 µg/mL	< 0.002 µg/mL	0.013 µg/mL	< 0.002 µg/mL	0.391 µg/mL	0.049 µg/mL	0.391 µg/mL	0.391 µg/mL	< 0.002 µg/mL	0.049 µg/mL	0.049 µg/mL	0.049 µg/mL	0.391 µg/mL	0.391 µg/mL	0.391 µg/mL	MIC (Escherichia coli 1507E; 18 hours, read-out: MIC): < 0.002 µg/mL
CCOC(=O)CC(=O)c1cn(C2CC2)c2c(Cl)c(N3CCC(N)C3)c(F)cc2c1=O (stereo not drawn) [Example 25, 1-cyclopropyl-6-fluoro-8-chloro-7-(3-aminopyrrolidin-1-yl)-3-(2-ethoxycarbonylacetyl)-1,4-dihydro-4-oxoquinoline hydrochloride]	< 0.002 µg/mL	0.004 µg/mL	< 0.002 µg/mL	0.025 µg/mL	0.098 µg/mL	0.025 µg/mL	< 0.002 µg/mL	0.013 µg/mL	< 0.002 µg/mL	0.195 µg/mL	0.098 µg/mL	0.195 µg/mL	0.391 µg/mL	0.004 µg/mL	0.049 µg/mL	0.049 µg/mL	0.098 µg/mL	0.391 µg/mL	0.781 µg/mL	0.391 µg/mL	–
CCOC(=O)CC(=O)c1cn(C2CC2)c2c(Cl)c(N3CC[C@@H](N)C3)c(F)cc2c1=O [Example 26, 1-cyclopropyl-6-fluoro-8-chloro-7-(3-3R-aminopyrrolidin-1-yl)-3-(2-ethoxycarbonylacetyl)-1,4-dihydro-4-oxoquinoline hydrochloride]	0.004 µg/mL	0.013 µg/mL	0.004 µg/mL	0.025 µg/mL	0.195 µg/mL	0.098 µg/mL	0.013 µg/mL	0.049 µg/mL	< 0.002 µg/mL	0.781 µg/mL	0.098 µg/mL	0.781 µg/mL	0.781 µg/mL	0.007 µg/mL	0.098 µg/mL	0.098 µg/mL	0.098 µg/mL	0.781 µg/mL	1.56 µg/mL	–	MIC ([12]; Streptococcus pyogenes, 77A, 18 h): 0.781 µg/mL
CCOC(=O)CC(=O)c1cn(C2CC2)c2c(Cl)c(N3CC[C@H](N)C3)c(F)cc2c1=O [Example 27, 1-cyclopropyl-6-fluoro-8-chloro-7-(3-3S-aminopyrrolidin-1-yl)-3-(2-ethoxycarbonylacetyl)-1,4-dihydro-4-oxoquinoline hydrochloride]	< 0.002 µg/mL	0.004 µg/mL	0.004 µg/mL	0.013 µg/mL	0.098 µg/mL	0.013 µg/mL	< 0.002 µg/mL	0.013 µg/mL	< 0.002 µg/mL	0.195 µg/mL	0.098 µg/mL	0.195 µg/mL	0.391 µg/mL	< 0.002 µg/mL	0.049 µg/mL	0.049 µg/mL	0.098 µg/mL	0.391 µg/mL	0.781 µg/mL	0.391 µg/mL	–
CCOC(=O)C(C(=O)OCC)C(=O)c1cn(C2CC2)c2c(Cl)c(N3CC=C(CNC)C3)c(F)cc2c1=O [Example 28, 1-cyclopropyl-6-fluoro-8-chloro-7-(3-methylaminomethyl-2,5-dihydropyrrol-1-yl)-3-(2,2-diethoxycarbonylacetyl)-1,4-dihydro-4-oxoquinoline hydrochloride]	< 0.002 µg/mL	< 0.002 µg/mL	< 0.002 µg/mL	0.013 µg/mL	0.195 µg/mL	0.049 µg/mL	0.013 µg/mL	0.013 µg/mL	0.007 µg/mL	0.391 µg/mL	0.195 µg/mL	0.781 µg/mL	0.781 µg/mL	0.013 µg/mL	0.007 µg/mL	< 0.002 µg/mL	0.004 µg/mL	0.049 µg/mL	0.098 µg/mL	0.049 µg/mL	–
CCOC(=O)CC(=O)c1cn(C2CC2)c2c(Cl)c(N3CC=C(CNC)C3)c(F)cc2c1=O [Example 29, 1-cyclopropyl-6-fluoro-8-chloro-7-(3-methylaminomethyl-2,5-dihydropyrrol-1-yl)-3-(2-ethoxycarbonylacetyl)-1,4-dihydro-4-oxoquinoline hydrochloride]	–	0.013 µg/mL	–	0.049 µg/mL	0.195 µg/mL	0.098 µg/mL	0.013 µg/mL	0.013 µg/mL	0.049 µg/mL	0.781 µg/mL	0.391 µg/mL	1.56 µg/mL	1.56 µg/mL	0.391 µg/mL	0.049 µg/mL	0.013 µg/mL	0.013 µg/mL	0.098 µg/mL	0.391 µg/mL	0.098 µg/mL	MIC ([1]; Enterobacter cloacae, 1321E, 18 h): 0.007 µg/mL; MIC (Escherichia coli 078; Escherichia coli, 078, 18 h): 0.013 µg/mL
CCn1cc(C(=O)C[N+](=O)[O-])c(=O)c2cc(F)c(N3CCC(N)C3)c(F)c21 (stereo not drawn) [Example 30, 1-ethyl-6,8-difluoro-7-(3-aminopyrrolidin-1-yl)-3-(2-nitroacetyl)-1,4-dihydro-4-oxoquinoline hydrochloride]	0.049 µg/mL	0.049 µg/mL	–	0.391 µg/mL	0.781 µg/mL	0.195 µg/mL	0.391 µg/mL	0.098 µg/mL	–	0.781 µg/mL	0.195 µg/mL	–	0.781 µg/mL	0.781 µg/mL	0.195 µg/mL	0.195 µg/mL	0.195 µg/mL	1.56 µg/mL	1.56 µg/mL	1.56 µg/mL	MIC (Escherichia coli 078; Escherichia coli, 078, 18 h): 0.049 µg/mL; MIC (Klebsiella oxytoca 1082E; [18]): 0.391 µg/mL; MIC ([5]; Pseudomonas aeruginosa, 1771, 18 h): 0.391 µg/mL
NC1CCN(c2c(F)cc3c(=O)c(C(=O)C[N+](=O)[O-])cn(CCF)c3c2F)C1 (stereo not drawn) [Example 31, 1-(2-fluoroethyl)-6,8-difluoro-7-(3-aminopyrrolidin-1-yl)-3-(2-nitroacetyl)-1,4-dihydro-4-oxoquinoline hydrochloride]	0.049 µg/mL	0.098 µg/mL	–	–	0.195 µg/mL	0.391 µg/mL	0.195 µg/mL	0.098 µg/mL	–	0.781 µg/mL	0.391 µg/mL	0.781 µg/mL	0.781 µg/mL	0.391 µg/mL	0.391 µg/mL	0.391 µg/mL	0.781 µg/mL	0.781 µg/mL	3.12 µg/mL	1.56 µg/mL	MIC (Escherichia coli 078; Escherichia coli, 078, 18 h): 0.391 µg/mL; MIC (Escherichia coli 1507E; 18 hours, read-out: MIC): 0.198 µg/mL; MIC (Klebsiella oxytoca 1082E; [18]): 0.195 µg/mL
